Reference: patent US11135212B2, “Method for treating osteoporosis, osteopenia or low bone mineral density” (Altum Pharmaceuticals Inc., priority 2009, dated 2021)

What was measured:
[1] = tested on: cathepsin K gene expression; assay: Osteoclast marker gene expression by real time RT-PCR: cathepsin K; type: cell-based, mouse (C57BL/6); conditions: osteoclasts treated with drug vs DMSO; FIG. 2
Experimental: (§1) Mouse bone marrow cells were flushed out from femora and tibiae of two 1-2-month old mice (C57BL/6), plated in culture medium (alpha MEM supplemented with 10% heat-inactivated fetal bovine serum, 100 international units/ml penicillin, 100 μg/ml streptomycin, and 2 mM L-glutamine) in a 100-mm dish, and incubated at 37° C. in 5% CO2 overnight. The next day, the non-adherent cells were pelleted and seeded at a density of 200,000 cells/cm^2. Then the osteoclast precursors were cultured in the presence of sRANKL (30 ng/ml) and M-CSF (30 ng/ml), and were treated with either tris(8-quinolinolato)gallium(III) or GaNO3 or DMSO (as a control). The medium was changed at day 3 to obtain mature osteoclasts at day 6. […] At the end of the treatment, the osteoclast preparations were stained for TRAP activity using a leukocyte acid phosphatase kit from Sigma and counted for TRAP-staining multinucleated cells. […] The number of cells having more than 3 nuclei was counted.
(§2) RNA was also isolated for gene expression analysis of osteoclast marker genes (TRAP, cathepsin K and NFAT2). Total RNA was extracted from osteoclasts treated with DMSO or tris(8-quinolinolato)gallium(III), and mRNAs were measured using real time RT-PCR. The relative levels of mRNAs were normalized to β-actin and then expressed as fold stimulation over DMSO-treated cells.

ovariectomized rats [2] = assay: Tibial bone mineral density by dual-energy X-ray absorptiometry in ovariectomized rats; type: in vivo, Sprague-Dawley female rats; conditions: 15 mg/kg oral, day one through day five of each week (daily), 32 days after first administration; FIG. 3
Experimental: (§3) The Sprague-Dawley female rats (100-125 gram, about 12 weeks old) were purchased from Taconic (Hudson, N.Y.). They were divided into 5 groups of 8 rats each. Four groups were ovariectomized, and one group was sham-operated. The rats were treated in the following manner: Group 1 ovariectomized rats were orally administered day one through day five of each week with 15 mg/kg tris(8-quinolinolato)gallium(III) (“daily”); Group 2 ovariectomized rats were treated with 75 mg/kg tris(8-quinolinolato)gallium(III) on day one of each week (“weekly”); Group 3 ovariectomized rats were treated with 38 mg/kg Ga(NO3)3 on day one of each week (“weekly”); Group 4 ovariectomized rats were treated with vehicle only (0.1% carboxymethylcellulose); Group 5 rats were sham-operated and were administered with vehicle only (0.1% carboxymethylcellulose). At the end of the experiment (32 days after the first administration of the compounds), the animals were anesthetized. Areal bone mineral density (BMD) and bone mineral content (BMC) were measured for the tibiae by dual-energy X-ray absorptiometry using an X-ray pixiMUS mouse densitometer.

NFAT2 gene expression = assay: Osteoclast marker gene expression by real time RT-PCR: NFAT2; type: cell-based, mouse (C57BL/6); conditions: osteoclasts treated with drug vs DMSO; FIG. 2
Experimental: as §1, §2

TRAP gene expression = assay: Osteoclast marker gene expression by real time RT-PCR: TRAP; type: cell-based, mouse (C57BL/6); conditions: osteoclasts treated with drug vs DMSO; FIG. 2
Experimental: as §1, §2

ovariectomized rats [3] = assay: Serum osteocalcin by ELISA in ovariectomized rats; type: in vivo, Sprague-Dawley female rats; conditions: daily drug (15 mg/kg oral, day one through day five of each week), FIG. 4
Experimental: as §3
Blood was drawn from the rats and left at room temperature for at least 30 minutes before centrifuging at 200×g for 10 minutes to separate sera. Serum was used for the measurement of serum markers including osteocalcin. Osteocalcin was measured by ELISA. […]

[4] = tested on: osteoclast precursors (mouse bone marrow cells); assay: Osteoclast differentiation/formation: count of TRAP-staining multinucleated cells from osteoclast precursors cultured with sRANKL and M-CSF; type: cell-based, mouse (C57BL/6); conditions: 0.2 nM to 100 μM, day 6, TRAP-stained cells with more than 3 nuclei; p<0.05 compared with DMSO and GaNO3 (3.9 μM, 39 μM); FIG. 1
Experimental: Mouse bone marrow cells were flushed out from femora and tibiae of two 1-2-month old mice (C57BL/6), plated in culture medium (alpha MEM supplemented with 10% heat-inactivated fetal bovine serum, 100 international units/ml penicillin, 100 μg/ml streptomycin, and 2 mM L-glutamine) in a 100-mm dish, and incubated at 37° C. in 5% CO2 overnight. The next day, the non-adherent cells were pelleted and seeded at a density of 200,000 cells/cm^2. Then the osteoclast precursors were cultured in the presence of sRANKL (30 ng/ml) and M-CSF (30 ng/ml), and were treated with either tris(8-quinolinolato)gallium(III) or GaNO3 or DMSO (as a control). The medium was changed at day 3 to obtain mature osteoclasts at day 6. For treatment with tris(8-quinolinolato)gallium(III), a drug stock solution prepared by dissolving tris(8-quinolinolato)gallium(III) in DMSO was added to the cell cultures to arrive at final concentrations of 0.2 nM, 2 nM, 0.02 μM, 0.2 μM, 2 μM, 20 μM, 50 μM, or 100 μM. At the end of the treatment, the osteoclast preparations were stained for TRAP activity using a leukocyte acid phosphatase kit from Sigma and counted for TRAP-staining multinucleated cells. Specifically, TRAP staining was performed and five areas of each well were photographed. The number of cells having more than 3 nuclei was counted.

[Ga+3].[O-]c1cccc2cccnc12.[O-]c1cccc2cccnc12.[O-]c1cccc2cccnc12 [tris(8-quinolinolato)gallium(III)]
cathepsin K gene expression (mRNA normalized to β-actin, fold over DMSO-treated cells) [1]: significantly inhibited
bone mineral density (tibiae) compared to ovariectomized untreated rats (ovariectomized rats [2]): increased bone mineral density
NFAT2 gene expression (mRNA normalized to β-actin, fold over DMSO-treated cells) (NFAT2 gene expression): significantly inhibited
TRAP gene expression (mRNA normalized to β-actin, fold over DMSO-treated cells) (TRAP gene expression): significantly inhibited
serum osteocalcin compared to ovariectomized rats treated with vehicle only (ovariectomized rats [3]): significantly associated with reduced serum osteocalcin
fusion of osteoclast precursors into multinucleated cells (osteoclast differentiation/formation) [4]: significantly inhibits
